Assay results reported in patent publication US10821195B2, “Compositions for therapeutics, targeted PET imaging and methods of their use” (Memorial Sloan Kettering Cancer Center, priority 2015, dated 2020).

Key:
Log D7.4 in octanol/PBS = format: physicochemical
[1] = Biodistribution of ^177Lu-HOPO and ^177Lu-DOTA in healthy female nude mice; format: in vivo
Method: Therefore, healthy female nude mice were injected with each of the complexes in order to determine their relative in vivo stabilities. The results are tabulated in Table 3 and are shown as graphs in FIG. 21A, FIG. 21B and FIG. 22.
Aliquots of the injectate (10 μL) were weighed and counted as standards with the tissues. The injection syringes were weighed pre- and post-injection to determine the weight of injectate and the activity according to the dose calibrator was measured before and after injection. All of the tissues were weighed and counted with the standards. The standards were used to obtain the counts/g injectate, the weights of the injectate were used to determine the total number of counts for the injected dose (ID), the counts of the tissue were used to get the % ID, and the weights of the tissues were used to obtain the % ID/g. Standard averaging and standard deviation calculations were applied.

[2] = Metal ion challenge of ^177Lu-HOPO and ^177Lu-DOTA; format: physicochemical; conditions: 10-fold excess Cu^2+, Fe^3+, Ga^3+, Gd^3+, 6 d
Method: The incubations were performed at 37° C. in a thermomixer over the course of 6 d and analyzed by radioTLC using C-18 TLC plates developed with 50 mM DTPA at 1, 3, and 6 d.

[3] = Hydroxyapatite stability (competition); format: physicochemical; conditions: after 6 d, 37° C.
Method: Additionally, each day the mixtures were vortexed to ensure proper mixing. At the respective time point, the aliquot was vortexed, centrifuged, vortexed, filtered (0.45 μm, 13 mm, nylon syringe filter, Fisher Scientific, Waltham, Mass.), and the filter washed with 1 mL of 50:50 EtOH in water. The filter (bound to hydroxyapatite), reaction tube, and filtrate (bound to the chelator) were counted separately on a gamma counter to determine the amount of activity in each.

O=C([O-])CN1CCN(CC(=O)[O-])CCN(CC(=O)[O-])CCN(CC(=O)[O-])CC1.[177Lu+3].[H+] [^177Lu-DOTA]
Log D7.4 (Log D7.4 in octanol/PBS): −4.1±0.4
Blood/Bone ratio ([1]; 0.5 h): 5 ± 2
Kidney/Bone ratio ([1]; 0.5 h): 13 ± 7
L. Intestine/Bone ratio ([1]; 0.5 h): 0.6 ± 0.3
Liver/Bone ratio ([1]; 0.5 h): 2.2 ± 0.7
Muscle/Bone ratio ([1]; 0.5 h): 0.9 ± 0.5
S. Intestine/Bone ratio ([1]; 0.5 h): 1.6 ± 0.6
biodistribution Bladder ([1]; 0.5 h): 0.691 ± 0.116 % ID/g
biodistribution Blood ([1]; 0.5 h): 0.407 ± 0.179 % ID/g
biodistribution Bone ([1]; 0.5 h): 0.090 ± 0.026 % ID/g
biodistribution Heart ([1]; 0.5 h): 0.142 ± 0.069 % ID/g
biodistribution Kidneys ([1]; 0.5 h): 1.121 ± 0.490 % ID/g
biodistribution L. Intestine ([1]; 0.5 h): 0.056 ± 0.025 % ID/g
biodistribution Liver ([1]; 0.5 h): 0.199 ± 0.033 % ID/g
biodistribution Lungs ([1]; 0.5 h): 0.298 ± 0.131 % ID/g
biodistribution Muscle ([1]; 0.5 h): 0.085 ± 0.037 % ID/g
biodistribution Pancreas ([1]; 0.5 h): 0.080 ± 0.037 % ID/g
biodistribution S. Intestine ([1]; 0.5 h): 0.142 ± 0.038 % ID/g
biodistribution Spleen ([1]; 0.5 h): 0.103 ± 0.019 % ID/g
biodistribution Stomach ([1]; 0.5 h): 0.120 ± 0.035 % ID/g
Blood/Bone ratio ([1]; 1 h): 0.6 ± 0.4
Kidney/Bone ratio ([1]; 1 h): 30 ± 30
L. Intestine/Bone ratio ([1]; 1 h): 0.26 ± 0.19
Liver/Bone ratio ([1]; 1 h): 2.3 ± 1.7
Muscle/Bone ratio ([1]; 1 h): 0.4 ± 0.4
S. Intestine/Bone ratio ([1]; 1 h): 1.5 ± 1.1
biodistribution Bladder ([1]; 1 h): 0.2962 ± 0.1869 % ID/g
biodistribution Blood ([1]; 1 h): 0.0287 ± 0.0038 % ID/g
biodistribution Bone ([1]; 1 h): 0.0491 ± 0.0349 % ID/g
biodistribution Heart ([1]; 1 h): 0.0142 ± 0.0016 % ID/g
biodistribution Kidneys ([1]; 1 h): 1.4402 ± 1.2901 % ID/g
biodistribution L. Intestine ([1]; 1 h): 0.0129 ± 0.0015 % ID/g
biodistribution Liver ([1]; 1 h): 0.1121 ± 0.0174 % ID/g
biodistribution Lungs ([1]; 1 h): 0.0444 ± 0.0175 % ID/g
biodistribution Muscle ([1]; 1 h): 0.0219 ± 0.0154 % ID/g
biodistribution Pancreas ([1]; 1 h): 0.0143 ± 0.0050 % ID/g
biodistribution S. Intestine ([1]; 1 h): 0.0722 ± 0.0209 % ID/g
biodistribution Spleen ([1]; 1 h): 0.0410 ± 0.0100 % ID/g
biodistribution Stomach ([1]; 1 h): 0.0230 ± 0.0174 % ID/g
Blood/Bone ratio ([1]; 4 h): 0.18 ± 0.06
Kidney/Bone ratio ([1]; 4 h): 40 ± 30
L. Intestine/Bone ratio ([1]; 4 h): 6 ± 7
Liver/Bone ratio ([1]; 4 h): 10 ± 4
Muscle/Bone ratio ([1]; 4 h): 0.74 ± 0.15
S. Intestine/Bone ratio ([1]; 4 h): 3 ± 3
biodistribution Bladder ([1]; 4 h): 0.1088 ± 0.0148 % ID/g
biodistribution Blood ([1]; 4 h): 0.0011 ± 0.0003 % ID/g
biodistribution Bone ([1]; 4 h): 0.0060 ± 0.0007 % ID/g
biodistribution Heart ([1]; 4 h): 0.0052 ± 0.0016 % ID/g
biodistribution Kidneys ([1]; 4 h): 0.2398 ± 0.1571 % ID/g
biodistribution L. Intestine ([1]; 4 h): 0.0361 ± 0.0403 % ID/g
biodistribution Liver ([1]; 4 h): 0.0614 ± 0.0205 % ID/g
biodistribution Lungs ([1]; 4 h): 0.0080 ± 0.0044 % ID/g
biodistribution Muscle ([1]; 4 h): 0.0044 ± 0.0007 % ID/g
biodistribution Pancreas ([1]; 4 h): 0.0068 ± 0.0038 % ID/g
biodistribution S. Intestine ([1]; 4 h): 0.0209 ± 0.0180 % ID/g
biodistribution Spleen ([1]; 4 h): 0.0249 ± 0.0009 % ID/g
biodistribution Stomach ([1]; 4 h): 0.0038 ± 0.0026 % ID/g
Blood/Bone ratio ([1]; 1 d): 0.04 ± 0.02
Kidney/Bone ratio ([1]; 1 d): 46 ± 12
L. Intestine/Bone ratio ([1]; 1 d): 10 ± 7
Liver/Bone ratio ([1]; 1 d): 7.6 ± 1.6
Muscle/Bone ratio ([1]; 1 d): 0.6 ± 0.3
S. Intestine/Bone ratio ([1]; 1 d): 4 ± 3
biodistribution Bladder ([1]; 1 d): 0.1599 ± 0.07394 % ID/g
biodistribution Blood ([1]; 1 d): 0.0002 ± 0.00011 % ID/g
biodistribution Bone ([1]; 1 d): 0.00484 ± 0.00076 % ID/g
biodistribution Heart ([1]; 1 d): 0.0027 ± 0.00067 % ID/g
biodistribution Kidneys ([1]; 1 d): 0.2226 ± 0.04562 % ID/g
biodistribution L. Intestine ([1]; 1 d): 0.05022 ± 0.03098 % ID/g
biodistribution Liver ([1]; 1 d): 0.0369 ± 0.00538 % ID/g
biodistribution Lungs ([1]; 1 d): 0.0041 ± 0.00192 % ID/g
biodistribution Muscle ([1]; 1 d): 0.00281 ± 0.00151 % ID/g
biodistribution Pancreas ([1]; 1 d): 0.00337 ± 0.00062 % ID/g
biodistribution S. Intestine ([1]; 1 d): 0.02037 ± 0.01362 % ID/g
biodistribution Spleen ([1]; 1 d): 0.02143 ± 0.00625 % ID/g
biodistribution Stomach ([1]; 1 d): 0.00294 ± 0.00146 % ID/g
Blood/Bone ratio ([1]; 6 d): 0.007 ± 0.015
Carcass/Bone ratio ([1]; 6 d): 0.60 ± 0.17
Kidney/Bone ratio ([1]; 6 d): 10 ± 4
L. Intestine/Bone ratio ([1]; 6 d): 0.34 ± 0.10
Liver/Bone ratio ([1]; 6 d): 4.2 ± 1.2
Muscle/Bone ratio ([1]; 6 d): 0.16 ± 0.12
S. Intestine/Bone ratio ([1]; 6 d): 0.24 ± 0.07
biodistribution Bladder ([1]; 6 d): 0.1186 ± 0.05899 % ID/g
biodistribution Blood ([1]; 6 d): 0.00003 ± 0.00006 % ID/g
biodistribution Bone ([1]; 6 d): 0.00412 ± 0.00104 % ID/g
biodistribution Carcass ([1]; 6 d): 0.0025 ± 0.0003 % ID/g
biodistribution Heart ([1]; 6 d): 0.00158 ± 0.00062 % ID/g
biodistribution Kidneys ([1]; 6 d): 0.04311 ± 0.01362 % ID/g
biodistribution L. Intestine ([1]; 6 d): 0.0014 ± 0.00017 % ID/g
biodistribution Liver ([1]; 6 d): 0.01724 ± 0.00259 % ID/g
biodistribution Lungs ([1]; 6 d): 0.00142 ± 0.00102 % ID/g
biodistribution Muscle ([1]; 6 d): 0.00067 ± 0.00046 % ID/g
biodistribution Pancreas ([1]; 6 d): 0.0012 ± 0.00048 % ID/g
biodistribution S. Intestine ([1]; 6 d): 0.001 ± 0.00011 % ID/g
biodistribution Spleen ([1]; 6 d): 0.01313 ± 0.00408 % ID/g
biodistribution Stomach ([1]; 6 d): 0.00045 ± 0.00010 % ID/g
biodistribution Bone ([1]; 6 d, listed as Lu-DOTA): 0.004±0.001 % ID/g
residual activity in all tissues and carcass ([1]; 6 d p.i.): 0.092±0.009 % ID
residual activity in carcass ([1]; 6 d p.i.): 0.044±0.004 % ID
clearance pathway ([1]; healthy female nude mice): excreted mostly via the renal-urinary clearance pathway
stability to transmetallation [2]: stable to transmetallation with all of the metals investigated in this study
complex intact in hydroxyapatite competition [3]: > 98%
